Results published in ChEMBL document CHEMBL1124540, “S-(2-oxopentadecyl)-CoA, a nonhydrolyzable analogue of myristoyl-CoA, is a potent inhibitor of myristoyl-CoA:protein N-myristoyltransferase” (J Med Chem, 1989).

Experiments:
[1] = Compound was tested for the competitive inhibition against mouse brain N-Myristoyltransferase; format: tissue-based
[2] = Michaelis-Menten constant against myristoyl CoA was determined in mouse; format: organism-based

Molecule CCCCCCCCCCCCCC(=O)CSCCNC(=O)CCNC(=O)C(O)C(C)(C)COP(=O)(O)OP(=O)(O)OC[C@H]1O[C@@H](n2cnc3c(N)ncnc32)[C@H](O)[C@@H]1OP(=O)(O)O (some centres not stated) has a Ki [1] of 0.024 µM and a Km [2] of 0.4 µM.
